In data set [1] the test system is NCI/ADR-RES drug resistant ovarian cancer xenografts. The experiment in a line: Efficacy in NCI/ADR-RES xenografts. The format is in vivo, mouse. The conditions noted are these: doxorubicin 2.0 mg/kg iv, terminated after the third dose.
For data set [2], the system named is NCI/ADR-RES ovarian cancer cell. The conditions noted are these: overexpresses p-gp; cited from earlier work.
For data set [3] the following is noted: aqueous buffer; cited from earlier work.

Turning to `COc1cccc2c1C(=O)c1c(O)c3c(c(O)c1C2=O)C[C@@](O)(C(=O)CO)C[C@@H]3O[C@H]1C[C@H](N)[C@H](O)[C@H](C)O1` [dox, Doxorubicin], the body weight loss entry in data set [1] is on record as “more than 20%”. In data set [2], the “effectiveness in drug-resistant cells” value is reported as “not effective”.

Consider `COc1cccc2c1C(=O)c1c(O)c3c(c(O)c1C2=O)C[C@@](O)(C(=O)CO)C[C@@H]3O[C@H]1C[C@@H]2NCO[C@@H]2[C@H](C)O1` [doxaz, Doxazolidine], for which the “half-life of hydrolysis to dox” value in data set [3] was 3 min. For the same molecule, in data set [2], the “effectiveness in drug-resistant cells” value is on record as “effective”.

For the molecule `CC(=O)O[C@H]1C(=O)[C@@]2(C)[C@H]([C@H](OC(=O)c3ccccc3)[C@]3(O)C[C@H](OC(=O)[C@H](O)[C@@H](NC(=O)c4ccccc4)c4ccccc4)C(C)=C1C3(C)C)[C@]1(OC(C)=O)CO[C@@H]1C[C@@H]2O` [paclitaxel], the “effectiveness in drug-resistant cells” value in data set [2] is given as “not effective”.

Source of the values: paper PMC12879253 (Molecular pharmaceutics, 2025).
